The molecules below were run against T1, eIF2Bα (Homo sapiens, UniProt Q14232) (assay: MIDAS (mass spectrometry integrated with equilibrium dialysis) metabolite binding screen). Conditions: MIDAS metabolite binding screen with eIF2Bα; sheet "eIF2Ba".
T1 construct: made in house; host or cells: E. coli BL21(DE3)
T1 sequence (Q14232 1-305): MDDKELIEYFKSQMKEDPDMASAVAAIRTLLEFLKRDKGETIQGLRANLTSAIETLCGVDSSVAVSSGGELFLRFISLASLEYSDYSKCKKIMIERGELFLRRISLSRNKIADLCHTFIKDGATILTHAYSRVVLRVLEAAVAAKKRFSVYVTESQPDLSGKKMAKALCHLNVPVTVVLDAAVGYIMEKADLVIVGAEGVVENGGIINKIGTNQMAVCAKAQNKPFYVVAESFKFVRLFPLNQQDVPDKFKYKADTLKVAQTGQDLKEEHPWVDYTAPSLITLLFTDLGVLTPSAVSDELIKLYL
Method: Metabolites were combined into four defined screening pools. […] To the reverse side, 300 μL of 50 μM per metabolite pool was aliquoted and sealed (metabolite chamber). Loaded dialysis plates were placed in the dark at 4 °C on a rotating shaker (120 rpm) and incubated for 40 h. Post-dialysis, metabolites were isolated from each chamber by cold methanol extraction. Each sample was analyzed in technical triplicate by FIA-MS on a SCIEX X500R QTOF MS with interspersed blanks injections. The input metabolite pools were assayed at the beginning, middle, and end of each MS method batch for QC and normalization.
MIDAS FIA-MS spectra were processed in SCIEX OS 1.6 software to determine metabolite abundances by integrating the mean area under the curve for each extracted ion chromatogram. For each dialysis replicate, log2(fold change) for each metabolite was calculated as the difference between the log2 abundance in the protein chamber and metabolite chamber. For each technical triplicate, up to one outlier was removed using a z-score cutoff of five (<0.1% of observations). The corrected technical replicates were collapsed to one mean fold-change summary per protein-metabolite pair. To remove fold-change variation that was not specific to a given metabolite-protein pair, the first three principal components of the total screening dataset were removed on a per metabolite pool basis by subtracting the projection of the first 3 principal components, creating log2(corrected fold change). Protein-metabolite z-scores were determined by comparing the target protein-metabolite log2(corrected fold change) to a no-signal model for that metabolite using measures of the central tendency (median) and standard deviation (extrapolated from the 25–75% quantiles), which are robust to the signals in the tails of a metabolite’s fold-change distribution. Z-scores were false-discovery rate controlled using Storey’s q-value (qvalue, R) and protein-metabolite interactions with q-values < 0.1 were considered significant.

In order of rising “log2(corrected fold change)” value:
1. Nc1nc2c(ncn2[C@H]2C[C@H](O)[C@@H](COP(=O)(O)OP(=O)(O)O)O2)c(=O)[nH]1 [2-Deoxyguanosine 5-diphosphate]  -0.09804
2. NC(CP(=O)(O)O)C(=O)O (racemic) [DL-2-Amino-3-phosphonopropionic acid]  -0.05707
3. O=C(O)C(O)c1ccc(O)c(O)c1 (racemic) [DL-3,4-Dihydroxymandelic acid]  -0.05412
4. CC(=O)NC1C(OP(=O)(O)OP(=O)(O)OCC2OC(n3ccc(=O)[nH]c3=O)C(O)C2O)OC(CO)C(O)C1O (stereo not shown)  -0.0409
5. O=C(O)CCCC(=O)C(=O)O [2-Oxoadipic acid]  -0.03769
6. Cn1cnc(CCN)c1 [1-Methylhistamine]  -0.03686
7. CCC(C)C(O)C(=O)O (stereo not shown) [2-Hydroxy-3-methylpentanoic acid]  -0.0302
8. CC(C)CC(O)C(=O)O (stereo not shown) [2-Hydroxyisocaproic acid]  -0.0302
9. O=C(O)CCO [3-Hydroxypropionic acid]  -0.02892
10. Nc1c(O)cccc1C(=O)O [3-Hydroxyanthranilic acid]  -0.02136
11. O=C(O)c1ccoc1 [3-Furoic acid]  -0.01812
12. O=C(O)CC(C(=O)O)C(O)C(=O)O (racemic) [DL-Isocitric acid]  -0.01609
13. CC(=O)N[C@H]1[C@H]([C@H](O)[C@H](O)CO)O[C@](OP(=O)(O)OC[C@H]2O[C@@H](n3ccc(N)nc3=O)[C@H](O)[C@@H]2O)(C(=O)O)C[C@@H]1O  -0.01546
14. CC(=CC(=O)O)CC(=O)O [3-Methylglutaconic acid]  -0.01192
15. O=C(O)C[C@H](O)[C@H](O)CO [2-Deoxy-D-ribonic acid]  -0.009975
16. NC(CCS)C(=O)O (racemic) [DL-Homocysteine]  -0.005857
17. NC1CCCNC1=O (stereo not shown) [3-Aminopiperidin-2-one]  0.003124
18. O=C(O)C(COP(=O)(O)O)OP(=O)(O)O [2,3-Diphospho-D-glyceric acid]  0.003153
19. CC(O)CC(=O)SCCNC(=O)CCNC(=O)[C@H](O)C(C)(C)COP(=O)(O)OP(=O)(O)OC[C@H]1O[C@@H](n2cnc3c(N)ncnc32)[C@H](O)[C@@H]1OP(=O)(O)O (stereo partly shown) [3-Hydroxybutyryl coenzyme A]  0.00715
20. CC(O)(CC(=O)O)CC(=O)SCCNC(=O)CCNC(=O)[C@H](O)C(C)(C)COP(=O)(O)OP(=O)(O)OC[C@H]1O[C@@H](n2cnc3c(N)ncnc32)[C@H](O)[C@@H]1OP(=O)(O)O (stereo partly shown) [3-Hydroxy-3-methylglutaryl coenzyme A]  0.00866
21. Nc1ccn([C@H]2C[C@H](O)[C@@H](COP(=O)(O)OP(=O)(O)O)O2)c(=O)n1 [2-Deoxycytidine 5-diphosphate]  0.01712
22. CC(C)=CC(=O)O [3,3-Dimethylacrylic acid]  0.01899
23. C[n+]1cccc(C(N)=O)c1 [1-Methylnicotinamide]  0.02855
24. OCC(O)COC1OC(CO)C(O)C(O)C1O (stereo not shown) [2,3-Dihydroxypropyl hexopyranoside]  0.03531
25. O=C(O)C(O)CO (stereo not shown) [2,3-Dihydroxypropanoic acid]  0.03679
26. CC(O)(CC(=O)O)CC(=O)O [3-Hydroxy-3-methylglutaric acid]  0.0406
27. O=C(O)COP(=O)(O)O [2-Phosphoglycolic acid]  0.0426
28. O=c1ccn([C@H]2C[C@H](O)[C@@H](CO)O2)c(=O)[nH]1 [2-Deoxyuridine]  0.04824
29. O=C(O)c1cc(O)ccc1O [2,5-Dihydroxybenzoic acid]  0.05271
30. Nc1nc2c(ncn2[C@H]2C[C@H](O)[C@@H](COP(=O)(O)OP(=O)(O)OP(=O)(O)O)O2)c(=O)[nH]1 [2-Deoxyguanosine 5-triphosphate]  0.05437
31. Nc1c(O)cccc1C(=O)CC(N)C(=O)O (racemic) [3-Hydroxy-DL-kynurenine]  0.08675
32. Nc1ncnc2c1ncn2C1CC(O)C(CO)O1 (stereo not shown) [2-Deoxyadenosine]  0.4061

Same assay, conditions: MIDAS screen, sheet eIF2Ba; metabolites screened in pools 1-4; p-value and q-value given

In order of falling “log2(corrected fold change)” value:
1. O=P(O)(O)OC[C@H]1O[C@@H](O)C[C@@H]1O [2-Deoxyribose-5-phosphate]  1.609
2. N[C@@H](Cc1ccc(O)c(I)c1)C(=O)O [3-Iodo-L-tyrosine]  0.6259
3. N[C@@H](Cc1ccc(O)c(O)c1)C(=O)O [3,4-Dihydroxy-L-phenylalanine]  0.5098
4. Nc1ccn([C@H]2C[C@H](O)[C@@H](CO)O2)c(=O)n1 [2-Deoxycytidine]  0.344
5. O=C(O)C(O)c1ccccc1 (racemic) [DL-Mandelic acid]  0.3212
6. O=c1ccn([C@H]2C[C@H](O)[C@@H](COP(=O)(O)O)O2)c(=O)[nH]1 [2-Deoxyuridine 5-monophosphate]  0.2736
7. NCCCN [1,3-Diaminopropane]  0.2387
8. CC(CNC(N)=O)C(=O)O (racemic) [DL-3-Ureidoisobutyric acid]  0.1976
9. NC(=O)CCC(N)C(=O)O (stereo in doubt) [D-Glutamine]  0.1976
10. O=C(O)Cc1ccc(O)c(O)c1 [3,4-Dihydroxyphenylacetic acid]  0.1411
11. O=Cc1cc(O)ccc1O [2,5-Dihydroxybenzaldehyde]  0.1295
12. COc1cc(CCN)ccc1O [3-Methoxytyramine]  0.126
13. N[C@H](CCSSCC[C@@H](N)C(=O)O)C(=O)O (racemic) [DL-Homocystine]  0.09463
14. CCC(CO)C(=O)O (stereo not shown) [2-(Hydroxymethyl)butanoic acid]  0.09429
15. CCC(O)C(=O)O (stereo not shown) [2-Hydroxybutanoic acid]  0.07137
16. CC(O)CC(=O)O (stereo not shown) [3-Hydroxybutyric acid]  0.07137
17. O=c1[nH]cnc2c1ncn2[C@H]1C[C@H](O)[C@@H](CO)O1 [2-Deoxyinosine]  0.06917
18. N[C@@H](Cc1cc(I)c(O)c(I)c1)C(=O)O [3,5-Diiodo-L-tyrosine]  0.05791
19. O=C(O)c1cccnc1C(=O)O [2,3-Pyridinedicarboxylic acid]  0.05596
20. Nc1ccn([C@H]2C[C@H](O)[C@@H](COP(=O)(O)O)O2)c(=O)n1 [2-Deoxy-5-cytidylic acid]  0.04298
21. CCC(C)C(=O)C(=O)O (stereo not shown) [3-Methyl-2-oxovaleric acid]  -0.05419
22. CCC(=O)C(=O)O [2-Ketobutyric acid]  -0.05529
23. Nc1ncnc2c1ncn2[C@H]1C[C@H](O)[C@@H](COP(=O)(O)OP(=O)(O)OP(=O)(O)O)O1 [2-Deoxyadenosine 5-triphosphate]  -0.07151
24. O=C(O)Cc1ccccc1O [2-Hydroxyphenylacetic acid]  -0.07366
25. NC(CCCC(=O)O)C(=O)O (stereo not shown) [2-Aminoadipic acid]  -0.07731
26. OCC(O)c1ccc(O)c(O)c1 (racemic) [DL-3,4-Dihydroxyphenyl glycol]  -0.07769
27. COc1cc(C(O)C(=O)O)ccc1O (racemic) [DL-4-Hydroxy-3-methoxymandelic acid]  -0.08249
28. CC(CCC(=O)O)C(=O)O (stereo not shown) [2-Methylglutaric acid]  -0.09665
29. CC(CC(=O)O)CC(=O)O [3-Methylglutaric acid]  -0.09665
30. NCC(O)CCC(N)C(=O)O (racemic) [DL-5-Hydroxylysine]  -0.09937
31. CC(CN)C(=O)O (stereo not shown) [3-Aminoisobutyric acid]  -0.1018
32. Nc1nc2c(ncn2[C@H]2C[C@H](O)[C@@H](CO)O2)c(=O)[nH]1 [2-Deoxyguanosine]  -0.1329
33. COc1cccc(C(=O)O)c1N [2-Amino-3-methoxybenzoic acid]  -0.1539
34. Cn1cnc(C[C@H](N)C(=O)O)c1 [1-Methyl-L-histidine]  -0.1945
35. O=CC[C@H](O)[C@H](O)CO [2-Deoxy-D-ribose]  -0.2249

— publication PMC8187479, “Sugar phosphate activation of the stress sensor eIF2B” (Nature Communications, 2021)
